In patent publication US11254690B2, “PTEFb inhibiting macrocyclic compounds” (BAYER AKTIENGESELLSCHAFT, priority 2017, dated 2022):
Where two headings read alike, the source gives them in different places.

How the values were obtained:
[1] = system: A2780 cells; assay: Proliferation assay, A2780; assay type: cell-based, human; settings: 72-hour exposure, Cell Titre-Glo, read-out: Inhibition of A2780 cell proliferation IC50
Experimental: Cultivated tumour cells (HeLa, human cervical tumour cells, ATCC CCL-2; NCI-H460, human non-small cell lung carcinoma cells, ATCC HTB-177; DU 145, hormone-independent human prostate carcinoma cells, ATCC HTB-81; HeLa-MaTu-ADR, multidrug-resistant human cervical carcinoma cells, EPO-GmbH Berlin; Caco-2, human colorectal carcinoma cells, ATCC HTB-37; B16F10, mouse melanoma cells, ATCC CRL-6475) were plated at a density of 5,000 cells/well (DU145, HeLa-MaTu-ADR), 3,000 cells/well (NCI-H460, HeLa), 1,500 cells/well (Caco-2), or 1,000 cells/well (B16F10) in a 96-well multititer plate in 200 μL of their respective growth medium supplemented 10% fetal calf serum. After 24 hours, the cells of one plate (zero-point plate) were stained with crystal violet (see below), while the medium of the other plates was supplemented with the test substances in various concentrations (0 μM, as well as in the range of 0.0001-10 μM; the final concentration of the solvent dimethyl sulfoxide was adjusted to 0.1%) using a Hewlett-Packard HP D300 Digital Dispenser. The cells were incubated for 4 days in the presence of test substances. Cell proliferation was determined by staining the cells with crystal violet: the cells were fixed by adding 20 μl/measuring point of an 11% glutaric aldehyde solution for 15 minutes at room temperature. After three washing cycles of the fixed cells with water, the plates were dried at room temperature. The cells were stained by adding 100 μl/measuring point of a 0.1% crystal violet solution (pH 3.0). After three washing cycles of the stained cells with water, the plates were dried at room temperature. The dye was dissolved by adding 100 μl/measuring point of a 10% acetic acid solution. The extinction was determined by photometry at a wavelength of 595 nm. The change of cell number, in percent, was calculated by normalization of the measured values to the extinction values of the zero-point plate (=0%) and the extinction of the untreated ([…]) cells (=100%). The IC50 values (inhibitory concentration at 50% of maximal effect) were determined by means of a 4 parameter fit. A2780 human ovarian carcinoma cells (ECACC #93112519) and non-adherent MOLM-13 human acute myeloid leukemia cells (DSMZ ACC 554) were seeded at a density of 3,000 cell/well (A2780) or 5,000 cells/well (MOLM-13) in a 96-well multititer plate in 150 μL of growth medium supplemented 10% fetal calf serum. After 24 hours, cell viability of one plate (zero-point plate) was determined with the Cell Titre-Glo Luminescent Cell Viability Assay (Promega), while the medium of the other plates was supplemented with the test substances in various concentrations (0 μM, as well as in the range of 0.0001-10 μM; the final concentration of the solvent dimethyl sulfoxide was adjusted to 0.1%) using a Hewlett-Packard HP D300 Digital Dispenser. Cell viability was assessed after 72-hour exposure with the Cell Titre-Glo Luminescent Cell Viability Assay (Promega). IC50 values (inhibitory concentration at 50% of maximal effect) were determined by means of a 4 parameter fit on measurement data which were normalized to vehicle (DMSO) treated cells (=100%) and measurement readings taken immediately before compound exposure (=0%).

[2] = biological target: T1, CDK2/CycE (Homo sapiens, UniProt P24941); assay: CDK2/CycE high ATP kinase assay (TR-FRET, 2 mM ATP); assay type: biochemical; settings: Method 2b
T1 construct: GST; purchased ProQinase GmbH (Freiburg, Germany); host or cells: insect cells (Sf9)
Experimental: 2b. CDK2/CycE High ATP Kinase Assay
CDK2/CycE-inhibitory activity of compounds of the present invention at 2 mM adenosine-tri-phosphate (ATP) was quantified employing the CDK2/CycE TR-FRET (TR-FRET=Time Resolved Fluorescence Energy Transfer) assay as described in the following paragraphs.
Recombinant fusion proteins of GST and human CDK2 and of GST and human CycE, expressed in insect cells (Sf9) and purified by Glutathion-Sepharose affinity chromatography, were purchase from ProQinase GmbH (Freiburg, Germany). As substrate for the kinase reaction biotinylated peptide biotin-Ttds-YISPLKSPYKISEG (C-terminus in amid form) was used which can be purchased e.g. form the company JERINI peptide technologies (Berlin, Germany).
(§1) For the assay 50 nl of a 100 fold concentrated solution of the test compound in DMSO was pipetted into either a black low volume 384 well microtiter plate or a black 1536 well microtiter plate (both Greiner Bio-One, Frickenhausen, Germany), 2 μl of a solution of CDK2/CycE in aqueous assay buffer [50 mM Tris/HCl pH 8.0, 10 mM MgCl2, 1.0 mM dithiothreitol, 0.1 mM sodium ortho-vanadate, 0.01% (v/v) Nonidet-P40 (Sigma)] were added and the mixture was incubated for 15 min at 22° C. to allow pre-binding of the test compounds to the enzyme before the start of the kinase reaction. […] The concentration of CDK2/CycE was adjusted depending of the activity of the enzyme lot and was chosen appropriate to have the assay in the linear range, typical concentrations were about 10 ng/ml. The reaction was stopped by the addition of 3 μl of a solution of TR-FRET detection reagents (0.333 μM streptavidine-XL665 [Cisbio Bioassays, Codolet, France] and 1.67 nM anti-RB(pSer807/pSer811)-antibody from BD Pharmingen [#558389] and 2 nM LANCE EU-W1024 labeled anti-mouse IgG antibody [Perkin-Elmer, product no. AD0077, as an alternative a Terbium-cryptate-labeled anti-mouse IgG antibody from Cisbio Bioassays can be used]) in an aqueous EDTA-solution (167 mM EDTA, 0.2% (w/v) bovine serum albumin in 100 mM HEPES pH 7.5).
(§2) The resulting mixture was incubated 1 h at 22° C. to allow the formation of complex between the phosphorylated biotinylated peptide and the detection reagents. Subsequently the amount of phosphorylated substrate was evaluated by measurement of the resonance energy transfer from the Eu-chelate to the streptavidine-XL. Therefore, the fluorescence emissions at 620 nm and 665 nm after excitation at 350 nm was measured in a TR-FRET reader, e.g. a Pherastar (BMG Labtechnologies, Offenburg, Germany) or a Viewlux (Perkin-Elmer). The ratio of the emissions at 665 nm and at […] was taken as the measure for the amount of phosphorylated substrate. The data were normalised (enzyme reaction without inhibitor=0% inhibition, all other assay components but no enzyme=100% inhibition).

[3] = biological target: T2, CDK9/CycT1 (Homo sapiens, UniProt P50750); assay: CDK9/CycT1 high ATP kinase assay (TR-FRET, 2 mM ATP); assay type: biochemical; settings: for IC50: 2 mM ATP, Method 1b, lower limit for IC50s about 1-2 nM; for Selectivity high ATP CDK9 over high ATP CDK2: IC50 (high ATP CDK2)/IC50 (high ATP CDK9): ratio from Methods 1b and 2b, minimal values for IC50s near the assay limit
T2 construct: Recombinant full-length His-tagged human CDK9 and CycT1; His; purchased Life Technologies PV4131; host or cells: insect cells
Experimental: 1b. CDK9/CycT1 High ATP Kinase Assay
CDK9/CycT1-inhibitory activity of compounds of the present invention at a high ATP concentration after preincubation of enzyme and test compounds was quantified employing the CDK9/CycT1 TR-FRET assay as described in the following paragraphs.
Recombinant full-length His-tagged human CDK9 and CycT1, expressed in insect cells and purified by Ni-NTA affinity chromatography, were purchased from Life Technologies (Cat. No PV4131). As substrate for the kinase reaction biotinylated peptide biotin-Ttds-YISPLKSPYKISEG (C-terminus in amide form) was used which can be purchased e.g. form the company JERINI peptide technologies (Berlin, Germany).
as §1, with “CDK9/CycT1” for “CDK2/CycE”, “in the range of 0.5 μg/ml.” for “about 10 ng/ml.”, “(0.33” for “(0.333”, “AD0077])” for “AD0077, as an alternative a Terbium-cryptate-labeled anti-mouse IgG antibody from Cisbio Bioassays can be used])”
as §2

[4] = in vivo; cited from earlier work

T2 sequence (P50750 whole entry): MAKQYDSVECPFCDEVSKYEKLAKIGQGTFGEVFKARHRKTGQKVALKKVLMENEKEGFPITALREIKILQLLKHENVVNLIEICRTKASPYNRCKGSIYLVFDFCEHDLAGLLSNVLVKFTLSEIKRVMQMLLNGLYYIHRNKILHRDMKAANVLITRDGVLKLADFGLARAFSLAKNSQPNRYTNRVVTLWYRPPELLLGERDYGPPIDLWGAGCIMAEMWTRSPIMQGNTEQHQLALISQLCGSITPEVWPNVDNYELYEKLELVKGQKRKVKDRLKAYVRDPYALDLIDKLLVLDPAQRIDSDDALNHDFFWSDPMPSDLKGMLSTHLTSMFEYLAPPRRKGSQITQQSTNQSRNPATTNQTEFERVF
T2 sequence (O60563 whole entry partner): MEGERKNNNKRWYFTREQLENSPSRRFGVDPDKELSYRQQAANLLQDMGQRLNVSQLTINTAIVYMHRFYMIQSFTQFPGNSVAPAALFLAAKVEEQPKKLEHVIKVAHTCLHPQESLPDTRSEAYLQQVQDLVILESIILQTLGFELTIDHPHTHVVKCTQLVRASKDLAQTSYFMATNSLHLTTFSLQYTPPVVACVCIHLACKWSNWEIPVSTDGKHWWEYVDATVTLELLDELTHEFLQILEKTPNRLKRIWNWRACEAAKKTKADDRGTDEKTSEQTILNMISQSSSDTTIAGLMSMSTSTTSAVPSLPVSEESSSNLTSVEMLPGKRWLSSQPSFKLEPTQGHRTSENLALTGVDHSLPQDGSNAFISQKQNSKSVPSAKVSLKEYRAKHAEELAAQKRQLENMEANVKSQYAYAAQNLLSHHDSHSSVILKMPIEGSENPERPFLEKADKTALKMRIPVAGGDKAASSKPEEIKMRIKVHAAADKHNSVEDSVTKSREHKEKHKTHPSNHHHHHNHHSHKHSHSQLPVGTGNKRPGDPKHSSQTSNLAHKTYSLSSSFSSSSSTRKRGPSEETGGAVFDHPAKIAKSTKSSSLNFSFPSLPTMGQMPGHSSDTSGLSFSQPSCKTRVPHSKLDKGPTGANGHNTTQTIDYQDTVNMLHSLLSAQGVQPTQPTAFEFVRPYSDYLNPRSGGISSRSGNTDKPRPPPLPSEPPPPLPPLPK

IC50 ([1]; Homo sapiens, A2780, 72 h) | IC50 [2] | IC50 [3] | Selectivity high ATP CDK9 over high ATP CDK2: IC50 (high ATP CDK2)/IC50 (high ATP CDK9) [3] | IC50 [1] | Structure (SMILES) | protection against bronchospasms [4]
121 nM | > 20000 nM | 16 nM | 1250 |  | CC1CCCCCOc2cc(ccc2F)-c2cc(ncc2F)Nc2cc(CS(C)(=O)=O)cc(n2)O1 (single isomer, unassigned) [Example 31, 3,22-difluoro-14-methyl-10-[(methylsulfonyl)methyl]-13,20-dioxa-5,7,26-triazatetracyclo[19.3.1.1^2,6.1^8,12]hexacosa-1 (25),2(27),3,5,8(26),9,11,21,23-nonaene] | 
 | 2720 nM | 5 nM | 544 | 102 nM | CC1CCCCCOc2cc(ccc2F)-c2cc(ncc2F)Nc2cc(CS(C)(=N)=O)cc(n2)O1 (single isomer, unassigned) [Example 27, 3,22-difluoro-14-methyl-10-[(S-methylsulfonimidoyl)methyl]-13,20-dioxa-5,7,26-triazatetracyclo[19.3.1.1^2,6.1^8,12]heptacosa-1(25),2(27),3,5,8(26),9,11,21,23-nonaene] | 
 |  |  |  |  | C[N+]1(C)[C@@H]2C[C@@H](OC(=O)C(O)(c3cccs3)c3cccs3)C[C@H]1[C@@H]1O[C@@H]12 [tiotropium] | more than 6 hours
